According to patent US20220408731A1, “MODIFIED ANTIMICROBIAL PEPTIDES” (priority 2021, published 2022):
≈ marks a conversion by molar mass, not a printed value. Read-outs that look alike come from different tables or passages of the source. Bridge positions count the residues as written; N and C are the ends. Peptide text beside a SMILES is read from it.

Key:
P. variotii = test: Antifungal MIC, CLSI M27/M38, half-strength potato dextrose broth; format: cell-based; conditions: P. variotii MYA-363; 24-72 hours
Method: (§1) Testing for antifungal activity used half-strength potato dextrose broth for peptides and RPMI for comparator antifungals fluconazole and voriconazole. CLSI M27 and M38 methodologies used for to measure MICs. Minimal Inhibitory Concentration (MIC) is the concentration of the compound, protein, or peptide at which there is no significant growth of the microorganism relative to the growth of the microorganism in growth medium lacking the compound, protein, or peptide.
(§2) […] The concentration range for peptides in potato dextrose broth was 0.06-2 mcg/ml, the concentration range for fluconazole was 0.125-64 mcg/ml, and the concentration range for voriconazole was 0.03-16 mcg/ml. MICs were determined at 24-72 hours.

Fusarium (F. solani) = test: as above; format: cell-based; conditions: Fusarium F4 (F. solani)
Method: as §1, §2

C. krusei = test: as above; format: cell-based; conditions: C. krusei ATCC 6258; 24-72 hours
Method: as §1, §2

Candida albicans = test: as above; format: cell-based
Method: as §1, §2

Fusarium (F. oxysporum) = test: as above; format: cell-based
Method: as §1, §2

Aspergillus fumigatus = test: as above; format: cell-based
Method: as §1, §2

Candida auris = test: as above; format: cell-based
Method: as §1, §2

C. parapsilosis = test: as above; format: cell-based, Candida parapsilosis; conditions: C. parapsilosis ATCC 22019; 24-72 hours
Method: as §1, §2

Coccidioides sp. = format: cell-based
Cercospora sojina = conditions: unit from method, none in Table 19
B. cinerea = test: Drop inoculation assay on detached Nicotiana benthamiana leaves (semi-in planta); format: in vivo, Botrytis cinerea; conditions: 48 h; for Reduction of gray mold disease symptoms: detached N. benthamiana leaves, no single concentration stated
[1] = tested on: Colletotrichum gloeosporioides; conditions: unit from method, none in Table 19
Alternaria alternata = conditions: unit from method, none in Table 19

C[C@@H](O)[C@H](NC(=O)[C@H](CS)NC(=O)[C@H](Cc1ccccc1)NC(=O)[C@H](CS)NC(=O)[C@H](CCCNC(=N)N)NC(=O)[C@H](CCCNC(=N)N)NC(=O)[C@H](CCCNC(=N)N)NC(=O)[C@H](Cc1ccccc1)NC(=O)CNC(=O)[C@H](CCCNC(=N)N)NC(=O)[C@H](CS)NC(=O)[C@H](CCCNC(=N)N)NC(=O)CN)C(=O)N[C@H](C(=O)N[C@@H](Cc1c[nH]cn1)C(=O)N[C@@H](CS)C(=O)O)[C@@H](C)O [GMA4AC, reference compound] (H-GRCRGFRRRCFCTTHC-OH; N-terminus assumed)
MIC (μM) Fusarium graminearum (Fusarium graminearum): 6 µM (≈ 11.8 µg/mL)
MIC (μM) Botrytis cinerea (Botrytis cinerea): 6 µM (≈ 11.8 µg/mL)

CC[C@H](C)[C@H](NC(=O)[C@H](CCCNC(=N)N)NC(=O)[C@@H](NC(=O)[C@H](CS)NC(=O)[C@H](Cc1ccccc1)NC(=O)[C@H](CS)NC(=O)[C@H](CCCNC(=N)N)NC(=O)[C@H](CCCNC(=N)N)NC(=O)[C@H](CCCNC(=N)N)NC(=O)[C@H](Cc1ccccc1)NC(=O)CNC(=O)[C@H](CCCNC(=N)N)NC(=O)[C@H](CS)NC(=O)[C@H](CCCNC(=N)N)NC(=O)CNC(=O)CN)[C@@H](C)O)C(=O)N[C@@H](CS)C(N)=O [GMA4C_V2A] (H-GGRCRGFRRRCFCTRIC-NH2; N-terminus assumed)
B. cinerea MIC (Botrytis cinerea): 3 µM
MIC (μM) Botrytis cinerea (Botrytis cinerea): 6 µM (≈ 12.3 µg/mL)
MIC Values (μM) against B. cinerea (Botrytis cinerea): 3 µM (≈ 6.14 µg/mL)
SFM + 2 mM CaCl2 MIC (Botrytis cinerea): >6 µM
SFM + 100 mM KCl MIC (Botrytis cinerea): 6 µM
SFM + 100 mM NaCl MIC (Botrytis cinerea): 3 µM
SFM MIC (Botrytis cinerea): 6 µM
MIC 100% (P. variotii): 8 µg/mL (≈ 3.91 µM)
MIC 100% (Fusarium (F. solani)): 8 µg/mL (≈ 3.91 µM)
MIC 100% (C. krusei): 16 µg/mL (≈ 7.82 µM)
MIC 100% (Candida albicans; Candida albicans ATCC 90028): 16 µg/mL (≈ 7.82 µM)
MIC 100% (Candida albicans; Candida albicans CA3): 16 µg/mL (≈ 7.82 µM)
MIC 100% (Candida albicans; Candida albicans SC5314): 16 µg/mL (≈ 7.82 µM)
MIC 100% (Fusarium (F. oxysporum); Fusarium F1 (F. oxysporum)): 8 µg/mL (≈ 3.91 µM)
MIC 100% (Fusarium (F. oxysporum); Fusarium F2 (F. oxysporum)): 16 µg/mL (≈ 7.82 µM)
MIC 100% (Aspergillus fumigatus; Aspergillus fumigatus AF293): 32 µg/mL (≈ 15.6 µM)
MIC 100% (Aspergillus fumigatus; Aspergillus fumigatus DI15-106): >32 µg/mL
MIC 100% (Aspergillus fumigatus; Aspergillus fumigatus DI15-116): >32 µg/mL
MIC 100% (Candida auris; Candida auris DI17-46): 16 µg/mL (≈ 7.82 µM)
MIC 100% (Candida auris; Candida auris DI17-47): 16 µg/mL (≈ 7.82 µM)
MIC 100% (Candida auris; Candida auris DI17-48): 16 µg/mL (≈ 7.82 µM)
MIC 100% (C. parapsilosis): 8 µg/mL (≈ 3.91 µM)
MIC 100% (Coccidioides sp.; Coccidioides sp. Cocci1): 8 µg/mL (≈ 3.91 µM)
MIC 100% (Coccidioides sp.; Coccidioides sp. Cocci2): 16 µg/mL (≈ 7.82 µM)
MIC 100% (Coccidioides sp.; Coccidioides sp. DI17-143): 16 µg/mL (≈ 7.82 µM)

N=C(N)NCCC[C@H](NC(=O)CNC(=O)[C@@H](N)Cc1ccccc1)C(=O)N[C@@H](CS)C(=O)N[C@@H](CCCNC(=N)N)C(=O)NCC(=O)N[C@@H](Cc1ccccc1)C(=O)N[C@@H](CCCNC(=N)N)C(=O)N[C@@H](CCCNC(=N)N)C(=O)N[C@@H](CCCNC(=N)N)C(=O)N[C@@H](CS)C(=O)N[C@@H](Cc1ccccc1)C(=O)N[C@@H](CS)C(=O)N[C@@H](Cc1c[nH]c2ccccc12)C(=O)N[C@@H](CCCNC(=N)N)C(=O)N[C@@H](Cc1c[nH]c2ccccc12)C(=O)N[C@@H](CS)C(N)=O [GMA4C_V4A] (H-FGRCRGFRRRCFCWRWC-NH2; N-terminus assumed)
Fungal growth inhibition in presence of 2 mM CaCl2 (Botrytis cinerea): inhibit fungal growth
MIC (μM) Botrytis cinerea (Botrytis cinerea): 1.5 µM (≈ 3.44 µg/mL)
MIC Values (μM) against B. cinerea (Botrytis cinerea): 1.5 µM (≈ 3.44 µg/mL)
Potency relative to GMA4C_AC in presence of cations (Botrytis cinerea): 2 fold
SFM + 2 mM CaCl2 MIC (Botrytis cinerea): 3 to 6 µM
SFM + 100 mM KCl MIC (Botrytis cinerea): 1.5 µM
SFM + 100 mM NaCl MIC (Botrytis cinerea): 1.5 µM
SFM MIC (Botrytis cinerea): 1.5 to 3 µM
MIC 100% (P. variotii): 8 µg/mL (≈ 3.49 µM)
MIC 100% (Fusarium (F. solani)): 8 µg/mL (≈ 3.49 µM)
MIC 100% (C. krusei): 8 µg/mL (≈ 3.49 µM)
MIC 100% (Candida albicans; Candida albicans ATCC 90028): 8 µg/mL (≈ 3.49 µM)
MIC 100% (Candida albicans; Candida albicans CA3): 8 µg/mL (≈ 3.49 µM)
MIC 100% (Candida albicans; Candida albicans SC5314): 8 µg/mL (≈ 3.49 µM)
MIC 100% (Fusarium (F. oxysporum); Fusarium F1 (F. oxysporum)): 8 µg/mL (≈ 3.49 µM)
MIC 100% (Fusarium (F. oxysporum); Fusarium F2 (F. oxysporum)): 8 µg/mL (≈ 3.49 µM)
MIC 100% (Aspergillus fumigatus; Aspergillus fumigatus AF293): 16 µg/mL (≈ 6.97 µM)
MIC 100% (Aspergillus fumigatus; Aspergillus fumigatus DI15-106): 16 µg/mL (≈ 6.97 µM)
MIC 100% (Aspergillus fumigatus; Aspergillus fumigatus DI15-116): 32 µg/mL (≈ 13.9 µM)
MIC 100% (Candida auris; Candida auris DI17-46): 8 µg/mL (≈ 3.49 µM)
MIC 100% (Candida auris; Candida auris DI17-47): 8 µg/mL (≈ 3.49 µM)
MIC 100% (Candida auris; Candida auris DI17-48): 8 µg/mL (≈ 3.49 µM)
MIC 100% (C. parapsilosis): 8 µg/mL (≈ 3.49 µM)
MIC 100% (Coccidioides sp.; Coccidioides sp. Cocci1): 4 µg/mL (≈ 1.74 µM)
MIC 100% (Coccidioides sp.; Coccidioides sp. Cocci2): 16 µg/mL (≈ 6.97 µM)
MIC 100% (Coccidioides sp.; Coccidioides sp. DI17-143): 16 µg/mL (≈ 6.97 µM)

CC[C@H](C)[C@@H]1NC(=O)[C@H](CCCNC(=N)N)NC(=O)[C@H]([C@@H](C)O)NC(=O)[C@H](Cc2ccccc2)NC(=O)[C@H](Cc2c[nH]c3ccccc23)NC(=O)[C@H](Cc2ccccc2)NC(=O)[C@H](CCCNC(=N)N)NC(=O)[C@H](CCCNC(=N)N)NC(=O)[C@H](CC(C)C)NC(=O)[C@H](Cc2ccccc2)NC(=O)CNC(=O)[C@H](CCCCN)NC(=O)[C@@H](NC(=O)[C@H](CCCNC(=N)N)NC(=O)CNC(=O)CN)CSSC[C@@H](C(N)=O)NC1=O [GMA4C_V9] (H-GGRCKGFLRRFWFTRIC-NH2; disulfide 4-17; N-terminus assumed)
MIC (μM) (SFM + 2 mM CaCl2) (Botrytis cinerea): 12 µM
MIC (μM) (SFM + 100 mM KCl) (Botrytis cinerea): 6 to 12 µM
MIC (μM) (SFM + 100 mM NaCl) (Botrytis cinerea): 3 µM
MIC (μM) SFM (Botrytis cinerea): 3 µM (≈ 6.3 µg/mL)
MIC, Cercospora sojina (Cercospora sojina): 6 µM (≈ 12.6 µg/mL)
Reduction of gray mold disease symptoms (B. cinerea): effective in reducing gray mold disease symptoms
MIC, Colletotrichum gloeosporioides [1]: >12 µM
MIC, Alternaria alternata (Alternaria alternata): >12 µM

CC[C@H](C)[C@@H]1NC(=O)[C@H](CCCNC(=N)N)NC(=O)[C@H]([C@@H](C)O)NC(=O)[C@H](Cc2c[nH]c3ccccc23)NC(=O)[C@H](Cc2ccc(O)cc2)NC(=O)[C@H](Cc2c[nH]c3ccccc23)NC(=O)[C@H](CCCNC(=N)N)NC(=O)[C@H](CCCNC(=N)N)NC(=O)[C@H](CCCNC(=N)N)NC(=O)[C@H](Cc2ccccc2)NC(=O)CNC(=O)[C@H](CCCCN)NC(=O)[C@@H](NC(=O)[C@H](CCCNC(=N)N)NC(=O)CNC(=O)CN)CSSC[C@@H](C(N)=O)NC1=O [GMA4C_V10] (H-GGRCKGFRRRWYWTRIC-NH2; disulfide 4-17; N-terminus assumed)
MIC (μM) (SFM + 2 mM CaCl2) (Botrytis cinerea): 3 µM
MIC (μM) (SFM + 100 mM KCl) (Botrytis cinerea): 3 to 6 µM
MIC (μM) (SFM + 100 mM NaCl) (Botrytis cinerea): 3 µM
MIC (μM) SFM (Botrytis cinerea): 3 µM (≈ 6.6 µg/mL)
MIC, Cercospora sojina (Cercospora sojina): 6 µM (≈ 13.2 µg/mL)
Reduction of gray mold disease symptoms (B. cinerea): effective in reducing gray mold disease symptoms
Gray mold symptoms, drop inoculation assay (B. cinerea; peptide at 1.5 μM and 3 μM): more effective in reducing the symptoms of gray mold than GMA4C_V9
Gray mold symptoms, drop inoculation assay (B. cinerea; peptide at 6 μM): completely abrogates gray mold symptoms
MIC, Colletotrichum gloeosporioides [1]: >12 µM
MIC, Alternaria alternata (Alternaria alternata): >12 µM

C[C@H](NC(=O)CN)C(=O)N[C@H]1CSSC[C@@H](C(N)=O)NC(=O)[C@H](CCCCN)NC(=O)[C@H](CCCCN)NC(=O)[C@H](Cc2ccc(O)cc2)NC(=O)[C@H](Cc2c[nH]c3ccccc23)NC(=O)[C@H](Cc2ccccc2)NC(=O)[C@H](Cc2c[nH]c3ccccc23)NC(=O)[C@H](C)NC(=O)[C@H](Cc2ccccc2)NC(=O)CNC(=O)[C@H](Cc2ccccc2)NC(=O)CNC(=O)[C@H](CCC(N)=O)NC(=O)[C@H](CCCNC(=N)N)NC(=O)[C@H](Cc2c[nH]cn2)NC1=O [GMA5CA_V3] (H-GACHRQGFGFAWFWYKKC-NH2; disulfide 3-18; N-terminus assumed)
MIC (μM) (SFM + 2 mM CaCl2) (Botrytis cinerea): >12 µM
MIC (μM) (SFM + 100 mM KCl) (Botrytis cinerea): >12 µM
MIC (μM) (SFM + 100 mM NaCl) (Botrytis cinerea): >12 µM
MIC (μM) SFM (Botrytis cinerea): 3 µM (≈ 6.57 µg/mL)
MIC, Cercospora sojina (Cercospora sojina): 6 µM (≈ 13.1 µg/mL)
MIC, Colletotrichum gloeosporioides [1]: >12 µM
MIC, Alternaria alternata (Alternaria alternata): 3 µM (≈ 6.57 µg/mL)

C[C@H](NC(=O)CN)C(=O)N[C@H]1CSSC[C@@H](C(N)=O)NC(=O)[C@H](CCCCN)NC(=O)[C@H](CCCCN)NC(=O)[C@H](Cc2ccc(O)cc2)NC(=O)[C@H](Cc2ccccc2)NC(=O)[C@H](Cc2ccccc2)NC(=O)[C@H](Cc2ccccc2)NC(=O)[C@H](C)NC(=O)[C@H](Cc2ccccc2)NC(=O)CNC(=O)[C@H](Cc2ccccc2)NC(=O)CNC(=O)[C@H](CCC(N)=O)NC(=O)[C@H](CCCNC(=N)N)NC(=O)[C@H](Cc2c[nH]cn2)NC1=O [GMA5CA_V4] (H-GACHRQGFGFAFFFYKKC-NH2; disulfide 3-18; N-terminus assumed)
MIC (μM) (SFM + 2 mM CaCl2) (Botrytis cinerea): >12 µM
MIC (μM) (SFM + 100 mM KCl) (Botrytis cinerea): >12 µM
MIC (μM) (SFM + 100 mM NaCl) (Botrytis cinerea): >12 µM
MIC (μM) SFM (Botrytis cinerea): 3 µM (≈ 6.33 µg/mL)
MIC, Cercospora sojina (Cercospora sojina): 6 µM (≈ 12.7 µg/mL)
MIC, Colletotrichum gloeosporioides [1]: >12 µM
MIC, Alternaria alternata (Alternaria alternata): 3 µM (≈ 6.33 µg/mL)
